According to patent publication US20240252454A1, “COMPOSITION COMPRISING AN INHIBITOR OF MITOCHONDRIAL TRANSCRIPTION” (LEAD DISCOVERY CENTER GMBH, priority 2021, published 2024):

What was measured:
Format in all cases: cell-based
[1] = test system: JAR; assay: SRB assay, IMT combined with inhibitor; settings: JAR (placenta); concentration series of the labelled inhibitor + fixed concentration of IMT (3S)-1-[(2R)-2-[4-(2-chloro-4-fluoro-phenyl)-2-oxo-chromen-7-yl]oxypropanoyl]piperidine-3-carboxylic acid (Table 3: 40 nM, 120 h); negative=synergistic, positive=antagonistic
Method in brief: (§1)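 Cells are grown at near-physiological glucose (5 mM) and given a dilution series of a MAPK signalling pathway SOC plus 40 nM (3S)-1-[(2R)-2-[4-(2-chloro-4-fluoro-phenyl)-2-oxo-chromen-7-yl]oxypropanoyl]piperidine-3-carboxylic acid held constant. After 120 h, biomass is quantified with sulforhodamine B.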

[2] = test system: HT1080; assay: SRB assay, IMT combined with inhibitor; settings: HT1080 (connective tissue); concentration series of the labelled inhibitor + fixed concentration of IMT (3S)-1-[(2R)-2-[4-(2-chloro-4-fluoro-phenyl)-2-oxo-chromen-7-yl]oxypropanoyl]piperidine-3-carboxylic acid (Table 3: 40 nM, 120 h); negative=synergistic, positive=antagonistic
Method in brief: as §1

[3] = test system: 33 tumour cell lines from different tissues; assay: SRB assay, panel of tumour cell lines; settings: fixed concentration of IMT (3S)-1-[(2R)-2-[4-(2-chloro-4-fluoro-phenyl)-2-oxo-chromen-7-yl]oxypropanoyl]piperidine-3-carboxylic acid against concentration series of the labelled inhibitor
Experimental: (§2) Solforhodamine B assay is carried out as described in Voigt W. (2005) Sulforhodamine B Assay and Chemosensitivity. (Methods in Molecular Medicine™, vol 110. Humana Press. https://doi.org/10.1385/1-59259-869-2:039).
(§3) The determination of changes in cellular biomass was based on the Solforhodamine B assay format, carried out as described in Voigt W. (2005) Sulforhodamine B Assay and Chemosensitivity. (Methods in Molecular Medicine™, vol 110. Humana Press. https://doi.org/10.1385/1-59259-869-2:039).
(§4) All in vitro cell culture experiments were carried out under near physiological glucose concentrations (5 mM) in at least two independent replicates.
To establish the method described, combinations of (3S)-1-[(2R)-2-[4-(2-chloro-4-fluoro-phenyl)-2-oxo-chromen-7-yl]oxypropanoyl]piperidine-3-carboxylic acid and various PARPi were tested with regard to their effect on the cell growth of 33 tumour cell lines from different tissues, in the SRB and CTG assay format. The assay methods and protocols in cell culture and measurement followed the procedure as described in Example 1). […] This initial study was followed by validation experiments in a matrix format and in the CTG assay, as described for Example 1) (Table 6.) […]

[4] = test system: MCF7; assay: SRB assay, IMT combined with inhibitor; settings: MCF7 (breast); concentration series of the labelled inhibitor + fixed concentration of IMT (3S)-1-[(2R)-2-[4-(2-chloro-4-fluoro-phenyl)-2-oxo-chromen-7-yl]oxypropanoyl]piperidine-3-carboxylic acid; negative=synergistic, positive=antagonistic
Experimental: as §2, §3, §4
(§5) To establish the method described, combinations of (3S)-1-[(2R)-2-[4-(2-chloro-4-fluoro-phenyl)-2-oxo-chromen-7-yl]oxypropanoyl]piperidine-3-carboxylic acid and various PARPi were tested with regard to their effect on the cell growth of 33 tumour cell lines from different tissues, in the SRB and CTG assay format. The assay methods and protocols in cell culture and measurement followed the procedure as described in Example 1). […] This initial study was followed by validation experiments in a matrix format and in the CTG assay, as described for Example 1) (Table 6.)

[5] = test system: MDAMB468; assay: SRB assay, IMT combined with inhibitor; settings: MDAMB468 (breast); concentration series of the labelled inhibitor + fixed concentration of IMT (3S)-1-[(2R)-2-[4-(2-chloro-4-fluoro-phenyl)-2-oxo-chromen-7-yl]oxypropanoyl]piperidine-3-carboxylic acid; negative=synergistic, positive=antagonistic
Experimental: as §2, §3, §4, §5

[6] = test system: ASPC1; assay: SRB assay, IMT combined with inhibitor; settings: ASPC1 (pancreas); concentration series of the labelled inhibitor + fixed concentration of IMT (3S)-1-[(2R)-2-[4-(2-chloro-4-fluoro-phenyl)-2-oxo-chromen-7-yl]oxypropanoyl]piperidine-3-carboxylic acid; negative=synergistic, positive=antagonistic
Experimental: as §2, §3, §4, §5

[7] = test system: A204; assay: SRB assay, IMT combined with inhibitor; settings: A204 (muscle); concentration series of the labelled inhibitor + fixed concentration of IMT (3S)-1-[(2R)-2-[4-(2-chloro-4-fluoro-phenyl)-2-oxo-chromen-7-yl]oxypropanoyl]piperidine-3-carboxylic acid; negative=synergistic, positive=antagonistic
Experimental: as §2, §3, §4, §5

[8] = test system: A2780; assay: CellTiter-GLO (CTG) assay, combinatorial matrix

Cc1cc(C(=O)NOCCO)c(Nc2ccc(I)cc2F)n(C)c1=O [AZD8330, 2-((2-Fluoro-4-iodophenyl)amino)-N-(2-hydroxyethoxy)-1,5-dimethyl-6-oxo-1,6-dihydropyridine-3-carboxamide]
difference between the calculated combinatorial index (BLISS) and the observed combinatorial effect [1]: 0.0124 | difference between the calculated combinatorial index (BLISS) and the observed combinatorial effect [2]: 0.0197

COc1c(OCCCN2CCOCC2)ccc2c1N=C(NC(=O)c1cnc(N)nc1)N1CCN=C21 [BAY 80-6946, 2-Amino-N-{7-methoxy-8-[3-(4-morpholinyl)propoxy]-2,3-dihydroimidazo[1,2-c]quinazolin-5-yl}-5-pyrimidinecarboxamide]
combinatorial effect in the majority of the cell lines and tissue types examined [3]: clear synergistic effect | difference between the calculated combinatorial index (BLISS) and the observed combinatorial effect [1]: 0.0381 | difference between the calculated combinatorial index (BLISS) and the observed combinatorial effect [2]: −0.0627 | difference between the calculated combinatorial index (BLISS) and the observed combinatorial effect [4]: 0.0155 | difference between the calculated combinatorial index (BLISS) and the observed combinatorial effect [5]: 0.0183 | difference between the calculated combinatorial index (BLISS) and the observed combinatorial effect [6]: 0.0488 | difference between the calculated combinatorial index (BLISS) and the observed combinatorial effect [7]: −0.0098

O=C(c1ccc(F)c(F)c1Nc1ccc(I)cc1F)N1CC(O)([C@@H]2CCCCN2)C1 [Cobimetinib]
difference between the calculated combinatorial index (BLISS) and the observed combinatorial effect [1]: 0.0139 | difference between the calculated combinatorial index (BLISS) and the observed combinatorial effect [2]: −0.0482

CC(C)(C)c1nc(-c2cccc(NS(=O)(=O)c3c(F)cccc3F)c2F)c(-c2ccnc(N)n2)s1 [Dabrafenib]
difference between the calculated combinatorial index (BLISS) and the observed combinatorial effect [1]: 0.0431 | difference between the calculated combinatorial index (BLISS) and the observed combinatorial effect [2]: −0.1475

C[C@H](Nc1ncnc2nc[nH]c12)c1cc2cccc(Cl)c2c(=O)n1-c1ccccc1 [Duvelisib]
difference between the calculated combinatorial index (BLISS) and the observed combinatorial effect [1]: 0.0624 | difference between the calculated combinatorial index (BLISS) and the observed combinatorial effect [2]: −0.0565 | difference between the calculated combinatorial index (BLISS) and the observed combinatorial effect [4]: 0.0256 | difference between the calculated combinatorial index (BLISS) and the observed combinatorial effect [5]: −0.0285 | difference between the calculated combinatorial index (BLISS) and the observed combinatorial effect [6]: 0.0753 | difference between the calculated combinatorial index (BLISS) and the observed combinatorial effect [7]: −0.0217

CS(=O)(=O)N1CCN(Cc2cc3nc(-c4cccc5[nH]ncc45)nc(N4CCOCC4)c3s2)CC1 [GDC-0941, 2-(1H-Indazol-4-yl)-6-[[4-(methylsulfonyl)-1-piperazinyl]methyl]-4-(4-morpholinyl)thieno[3,2-d]pyrimidine]
difference between the calculated combinatorial index (BLISS) and the observed combinatorial effect [1]: 0.0136 | difference between the calculated combinatorial index (BLISS) and the observed combinatorial effect [2]: 0.0172 | difference between the calculated combinatorial index (BLISS) and the observed combinatorial effect [4]: 0.0454 | difference between the calculated combinatorial index (BLISS) and the observed combinatorial effect [5]: −0.0509 | difference between the calculated combinatorial index (BLISS) and the observed combinatorial effect [6]: 0.1003 | difference between the calculated combinatorial index (BLISS) and the observed combinatorial effect [7]: 0.3066

O=C(c1cc(Cc2n[nH]c(=O)c3ccccc23)ccc1F)N1CCN(C(=O)C2CC2)CC1 [Olaparib]
combinatorial effect in the majority of the cell lines and tissue types examined [3]: clear synergistic effect | difference between the calculated combinatorial index (BLISS) and the observed combinatorial effect [1]: 0.0294 | combination of IMT and PARPi compared to treatment with just the PARPi alone ([8]; A2780, CTG matrix, 30 μM to 10 nM IMT (3S)-1-[(2R)-2-[4-(2-chloro-4-fluoro-phenyl)-2-oxo-chromen-7-yl]oxypropanoyl]piperidine-3-carboxylic acid + 30 μM to 40 nM of the labelled PARPi): advantage of the combination | activity at 0.04 µM ([8]; Homo sapiens, A2780, 72 hours, Olaparib 0.04 μM, IMT (3S)-1-[(2R)-2-[4-(2-chloro-4-fluoro-phenyl)-2-oxo-chromen-7-yl]oxypropanoyl]piperidine-3-carboxylic acid at the μM of c0, untreated control =100%, read-out: Measured residual activity (cellular ATP content)): 99% | activity at 0.1 µM ([8]; Homo sapiens, A2780, 72 hours, Olaparib 0.1 μM, IMT (3S)-1-[(2R)-2-[4-(2-chloro-4-fluoro-phenyl)-2-oxo-chromen-7-yl]oxypropanoyl]piperidine-3-carboxylic acid at the μM of c0, untreated control =100%, read-out: Measured residual activity (cellular ATP content)): 85% | activity at 0.4 µM ([8]; Homo sapiens, A2780, 72 hours, Olaparib 0.4 μM, IMT (3S)-1-[(2R)-2-[4-(2-chloro-4-fluoro-phenyl)-2-oxo-chromen-7-yl]oxypropanoyl]piperidine-3-carboxylic acid at the μM of c0, untreated control =100%, read-out: Measured residual activity (cellular ATP content)): 46% | activity at 1.1 µM ([8]; Homo sapiens, A2780, 72 hours, Olaparib 1.1 μM, IMT (3S)-1-[(2R)-2-[4-(2-chloro-4-fluoro-phenyl)-2-oxo-chromen-7-yl]oxypropanoyl]piperidine-3-carboxylic acid at the μM of c0, untreated control =100%, read-out: Measured residual activity (cellular ATP content)): 27% | activity at […] ([8]; Homo sapiens, A2780, 72 hours, Olaparib 3.3 μM, IMT (3S)-1-[(2R)-2-[4-(2-chloro-4-fluoro-phenyl)-2-oxo-chromen-7-yl]oxypropanoyl]piperidine-3-carboxylic acid at the μM of c0, untreated control =100%, read-out: Measured residual activity (cellular ATP content)): 14% | activity at 10 µM ([8]; Homo sapiens, A2780, 72 hours, Olaparib 10 μM, IMT (3S)-1-[(2R)-2-[4-(2-chloro-4-fluoro-phenyl)-2-oxo-chromen-7-yl]oxypropanoyl]piperidine-3-carboxylic acid at the μM of c0, untreated control =100%, read-out: Measured residual activity (cellular ATP content)): 1% | activity at 30 µM ([8]; Homo sapiens, A2780, 72 hours, Olaparib 30 μM, IMT (3S)-1-[(2R)-2-[4-(2-chloro-4-fluoro-phenyl)-2-oxo-chromen-7-yl]oxypropanoyl]piperidine-3-carboxylic acid at the μM of c0, untreated control =100%, read-out: Measured residual activity (cellular ATP content)): 0% | difference between the calculated combinatorial index (BLISS) and the observed combinatorial effect [4]: 0.0602 | difference between the calculated combinatorial index (BLISS) and the observed combinatorial effect [5]: −0.0262 | difference between the calculated combinatorial index (BLISS) and the observed combinatorial effect [6]: −0.0583 | difference between the calculated combinatorial index (BLISS) and the observed combinatorial effect [7]: −0.0329

O=C(NOC[C@H](O)CO)c1ccc(F)c(F)c1Nc1ccc(I)cc1F [PD 0325901, (R)—N-(2,3-dihydroxypropoxy)-3,4-difluoro-2-((2-fluoro-4-iodophenyl)amino)benzamide]
difference between the calculated combinatorial index (BLISS) and the observed combinatorial effect [1]: 0.0256 | difference between the calculated combinatorial index (BLISS) and the observed combinatorial effect [2]: 0.0433

Cn1cnc2c(F)c(Nc3ccc(Br)cc3Cl)c(C(=O)NOCCO)cc21 [Selumetinib]
difference between the calculated combinatorial index (BLISS) and the observed combinatorial effect [1]: 0.0045 | difference between the calculated combinatorial index (BLISS) and the observed combinatorial effect [2]: −0.0139

CC(=O)Nc1cccc(-n2c(=O)n(C3CC3)c(=O)c3c(Nc4ccc(I)cc4F)n(C)c(=O)c(C)c32)c1 [Trametinib]
difference between the calculated combinatorial index (BLISS) and the observed combinatorial effect [1]: 0.0230 | difference between the calculated combinatorial index (BLISS) and the observed combinatorial effect [2]: 0.0288

CC(C)Nc1cc(-c2c[nH]c(C(=O)N[C@H](CO)c3cccc(Cl)c3)c2)c(Cl)cn1 [Ulixertinib]
difference between the calculated combinatorial index (BLISS) and the observed combinatorial effect [1]: 0.0116 | difference between the calculated combinatorial index (BLISS) and the observed combinatorial effect [2]: −0.0011
